Source: ChEMBL document CHEMBL1201862, “PubChem BioAssay data set” (2004)
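Step 1: Grow cells in 96-well plates. Step 2: Expose to compound for 48 hours at 5 concentrations. Step 3: Interpolate endpoints linearly; if unreached, use highest concentration. GI50 is the concentration that inhibits growth by half.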 Activity calls are given as the source filed them. Cut-off read from the data, not from the text of the source: active = GI50 up to about 1.1 µM and inactive = higher.

Key:
Experiment in all cases: NCI anticancer screen, dose series, 48 h
HCT-116 = tested on: HCT-116
NCI-H522 = tested on: NCI-H522
NCI-H226 = tested on: NCI-H226
RPMI-8226 = tested on: RPMI-8226
SN12C = tested on: SN12C
A549 = tested on: A549
HOP-92 = tested on: HOP-92
OVCAR-3 = tested on: OVCAR-3
HOP-62 = tested on: HOP-62
A498 = tested on: A498
LXFL 529 = tested on: LXFL 529
UACC-62 = tested on: UACC-62
SK-MEL-5 = tested on: SK-MEL-5
HL-60 = tested on: HL-60
OVCAR-5 = tested on: OVCAR-5
SK-MEL-2 = tested on: SK-MEL-2
Malme-3M = tested on: Malme-3M
COLO 205 = tested on: COLO 205

Measured: GI50

CCCc1nc(NC#N)nc(C(=O)Nc2ccccc2)c1CC
inactive: HCT-116 > 100 µM | NCI-H522 > 100 µM | NCI-H226 > 100 µM | RPMI-8226 > 100 µM | SN12C > 100 µM | A549 > 100 µM | HOP-92 > 100 µM | OVCAR-3 > 100 µM | HOP-62 > 100 µM | A498 > 100 µM | LXFL 529 > 100 µM | UACC-62 > 100 µM | SK-MEL-5 > 100 µM | HL-60 > 100 µM | OVCAR-5 > 100 µM | SK-MEL-2 > 100 µM | Malme-3M > 100 µM

S=c1sc2c(S)nc(S)nc2n1-c1ccccc1
inactive: HCT-116 > 100 µM | NCI-H522 41.5 µM | COLO 205 > 100 µM | NCI-H226 > 100 µM | RPMI-8226 > 100 µM | SN12C > 100 µM | A549 > 100 µM | HOP-92 42.4 µM | OVCAR-3 > 100 µM | HOP-62 > 100 µM | A498 41 µM | LXFL 529 > 100 µM | UACC-62 > 100 µM | SK-MEL-5 > 100 µM | HL-60 > 100 µM | OVCAR-5 > 100 µM | SK-MEL-2 > 100 µM | Malme-3M > 100 µM

CC1=C(C(=O)Nc2ccc(Cl)c(Cl)c2)C(c2ccco2)C(C(=O)Nc2ccc(Cl)c(Cl)c2)=C(C)N1
inactive: HCT-116 9.84 µM | NCI-H522 5.73 µM | COLO 205 12.9 µM | NCI-H226 12.5 µM | RPMI-8226 7.16 µM | SN12C 11.6 µM | A549 12.5 µM | HOP-92 15.8 µM | OVCAR-3 7.98 µM | HOP-62 14 µM | A498 12.8 µM | LXFL 529 11.9 µM | UACC-62 12.9 µM | SK-MEL-5 13.7 µM | HL-60 19.3 µM | OVCAR-5 15.1 µM | SK-MEL-2 12.4 µM | Malme-3M 14.8 µM

C/C(=N\O)C(CN1CCCCC1)C(c1ccccc1)c1c(O)c2ccccc2oc1=O (stereo not drawn)
inactive: HCT-116 > 100 µM | NCI-H522 > 100 µM | COLO 205 > 100 µM | NCI-H226 > 100 µM | RPMI-8226 > 100 µM | SN12C > 100 µM | A549 > 100 µM | HOP-92 62.1 µM | OVCAR-3 > 100 µM | HOP-62 > 100 µM | A498 > 100 µM | LXFL 529 > 100 µM | UACC-62 > 100 µM | SK-MEL-5 > 100 µM | HL-60 > 10 µM | OVCAR-5 > 100 µM | SK-MEL-2 > 100 µM | Malme-3M > 100 µM

O=C1NC2(NC(=O)C1=O)Nc1ccccc1S2
inactive: HCT-116 19.2 µM | NCI-H522 22.1 µM | COLO 205 21.6 µM | NCI-H226 > 58.6 µM | RPMI-8226 21.6 µM | SN12C 23.8 µM | A549 > 60.5 µM | HOP-92 > 100 µM | OVCAR-3 > 89.3 µM | HOP-62 > 83.8 µM | A498 99.1 µM | LXFL 529 36.6 µM | UACC-62 23.8 µM | SK-MEL-5 32.7 µM | HL-60 21.6 µM | OVCAR-5 > 100 µM | SK-MEL-2 55.8 µM | Malme-3M 97.1 µM

N#CCC(=O)Nc1ccccc1O
inactive: HCT-116 > 100 µM | NCI-H522 > 100 µM | COLO 205 > 100 µM | NCI-H226 > 100 µM | RPMI-8226 > 100 µM | SN12C > 100 µM | A549 > 100 µM | HOP-92 > 100 µM | OVCAR-3 > 100 µM | HOP-62 > 100 µM | A498 > 100 µM | LXFL 529 > 100 µM | UACC-62 > 100 µM | SK-MEL-5 > 100 µM | HL-60 > 100 µM | OVCAR-5 > 100 µM | SK-MEL-2 > 100 µM | Malme-3M > 100 µM

CC1(C)OC(=O)C(=Cc2ccc(O)cc2)C(=O)O1
inactive: HCT-116 > 100 µM | NCI-H522 > 100 µM | COLO 205 > 100 µM | NCI-H226 > 100 µM | RPMI-8226 > 100 µM | SN12C > 100 µM | A549 > 100 µM | HOP-92 > 100 µM | OVCAR-3 > 100 µM | HOP-62 > 100 µM | A498 > 100 µM | LXFL 529 > 100 µM | UACC-62 > 100 µM | SK-MEL-5 > 100 µM | HL-60 > 100 µM | OVCAR-5 > 100 µM | SK-MEL-2 > 100 µM | Malme-3M > 100 µM

CC(=O)OCC1OC(n2cc(I)c(=O)[nH]c2=O)C(OC(C)=O)C(OC(C)=O)C1OC(C)=O (stereo not drawn)
inactive: HCT-116 > 100 µM | NCI-H522 > 100 µM | COLO 205 > 100 µM | NCI-H226 > 100 µM | RPMI-8226 > 100 µM | SN12C > 100 µM | A549 > 100 µM | HOP-92 > 100 µM | OVCAR-3 > 100 µM | HOP-62 > 100 µM | A498 > 100 µM | LXFL 529 > 100 µM | UACC-62 > 100 µM | SK-MEL-5 > 100 µM | HL-60 > 100 µM | OVCAR-5 > 100 µM | SK-MEL-2 > 100 µM | Malme-3M > 100 µM
